Common to all, as to assay type: functional
For assay [1], the species on record is Cavia porcellus. The assay can be described thus: Dose required to produce 50% increase in developed tension of inotropic effect in guinea pig atria.
The species entered for assay [2] is Cavia porcellus. Kind of assay: Dose required to produce 75% increase in developed tension of inotropic effect in guinea pig atria.
Assay [3] is filed under the species Cavia porcellus. The assay can be described thus: Dose required to produce negative inotropic (NI) effect in Guinea pig atria; MI is Minimal Activity.
For assay [4], the species on record is Cavia porcellus. The assay can be described thus: Dose required to produce negative inotropic (NI) effect in Guinea pig atria.
The species named for assay [5] is Cavia porcellus. Kind of assay: Dose required to produce negative inotropic (NI) or arrhythmia (A) effect in Guinea pig atria.
Assay [6] is filed under the species Cavia porcellus. Kind of assay: Dose required to produce 75% increase in developed tension of inotropic effect in guinea pig atria; MI is Minimal Activity.
The species named for assay [7] is Cavia porcellus. Kind of assay: Dose required to produce arrhythmia (A) on Guinea pig atria.

Regarding `CC(=O)OC[C@H]1O[C@@H](OC2CC[C@@]3(C)C(CC[C@@H]4[C@@H]3CC[C@]3(C)[C@@H](C5=CC(=O)OC5)CC[C@@]43O)C2)[C@H](OC(C)=O)[C@@H]1OC(C)=O` (stereo not given in full), the figures for the Dose in the assay filed under Cavia porcellus [1], in the assay filed under Cavia porcellus [2] and in the assay filed under Cavia porcellus [3] were 1.9 µM, 3 µM and “Minimal activity”, respectively.
Consider `C[C@H]1O[C@@H](O[C@H]2[C@@H](O)C[C@H](O[C@H]3[C@@H](O)C[C@H](O[C@H]4CC[C@@]5(C)[C@H](CC[C@@H]6[C@@H]5C[C@@H](O)[C@]5(C)[C@@H](C7=CC(=O)OC7)CC[C@]65O)C4)O[C@@H]3C)O[C@@H]2C)C[C@H](O)[C@@H]1O` [DIGOXIN], for which the Dose in the assay filed under Cavia porcellus [1] is 0.42 µM; in the assay listed under Cavia porcellus [2], 0.82 µM; in the assay listed under Cavia porcellus [4], 2.5 µM.
On to `CC(=O)O[C@H]1[C@H](OC2CC[C@@]3(C)C(CC[C@@H]4[C@@H]3CC[C@]3(C)[C@@H](C5=CC(=O)OC5)CC[C@@]43O)C2)O[C@H]2[C@@H]1OC[C@H]2OC(C)=O` (stereo not given in full), for which the Dose in the assay listed under Cavia porcellus [1] was determined as 0.39 µM; in the assay filed under Cavia porcellus [2], 0.53 µM; in the assay filed under Cavia porcellus [5], 1 µM.
Take `CC(=O)O[C@H]1[C@H](OC2CC[C@@]3(C)C(CCC4[C@@H]3CC[C@]3(C)[C@@H](C5=CC(=O)OC5)CC[C@@]43O)C2)O[C@H](CN=[N+]=[N-])[C@H]1OC(C)=O` (stereo not given in full): the Dose is 0.3 µM in the assay filed under Cavia porcellus [1], 0.44 µM in the assay listed under Cavia porcellus [2] and 2.5 µM in the assay listed under Cavia porcellus [4].
Turning to `C[C@]12CCC(O[C@@H]3O[C@H]4[C@H](OC[C@H]4O)[C@H]3O)CC1CC[C@@H]1[C@@H]2CC[C@]2(C)[C@@H](C3=CC(=O)OC3)CC[C@@]12O` (stereo not given in full), the Dose in the assay listed under Cavia porcellus [1] was 10 µM; in the assay filed under Cavia porcellus [3] it was “Minimal activity”; in the assay filed under Cavia porcellus [6], “Minimal activity”.
Turning to `C[C@]12CCC(O[C@@H]3O[C@H]4[C@H](NC[C@H]4O)[C@H]3O)CC1CC[C@@H]1[C@@H]2CC[C@]2(C)[C@@H](C3=CC(=O)OC3)CC[C@@]12O` (stereo not given in full), the Dose was 0.5 µM in the assay listed under Cavia porcellus [1], 0.86 µM in the assay filed under Cavia porcellus [2], 1.5 µM in the assay filed under Cavia porcellus [7] and 2 µM in the assay filed under Cavia porcellus [4].
With `C[C@]12CC[C@H](O[C@@H]3O[C@H](CN=[N+]=[N-])[C@@H](O)[C@H]3O)C[C@@H]1CC[C@@H]1[C@@H]2CC[C@]2(C)[C@@H](C3=CC(=O)OC3)CC[C@@]12O`, the Dose in the assay listed under Cavia porcellus [1] came to 0.25 µM; in the assay listed under Cavia porcellus [2], 0.43 µM; in the assay listed under Cavia porcellus [5] it was 1 µM.
`CC(=O)O[C@H]1[C@H](OC2CC[C@@]3(C)C(CC[C@@H]4[C@@H]3CC[C@]3(C)[C@@H](C5=CC(=O)OC5)CC[C@@]43O)C2)O[C@H]2[C@@H]1N(C(=O)C(F)(F)F)C[C@H]2OC(C)=O` (stereo not given in full): the Dose turned out to be 0.54 µM in the assay listed under Cavia porcellus [1], 0.65 µM in the assay filed under Cavia porcellus [2], 0.75 µM in the assay listed under Cavia porcellus [7] and 1 µM in the assay filed under Cavia porcellus [4].
For `C[C@]12CC[C@H](O[C@@H]3O[C@H](CO)[C@@H](O)[C@H]3O)C[C@@H]1CC[C@@H]1[C@@H]2CC[C@]2(C)[C@@H](C3=CC(=O)OC3)CC[C@@]12O`, the Dose turned out to be 0.36 µM in the assay filed under Cavia porcellus [1], 0.64 µM in the assay filed under Cavia porcellus [2] and 2.5 µM in the assay listed under Cavia porcellus [4].
With `C[C@]12CC[C@H](O[C@@H]3O[C@H](CN)[C@@H](O)[C@H]3O)C[C@@H]1CC[C@@H]1[C@@H]2CC[C@]2(C)[C@@H](C3=CC(=O)OC3)CC[C@@]12O`, the Dose is 0.26 µM in the assay filed under Cavia porcellus [1], 0.35 µM in the assay listed under Cavia porcellus [2] and 5 µM in the assay listed under Cavia porcellus [5].
Consider `C[C@]12CC[C@H](O)C[C@H]1CC[C@@H]1[C@@H]2CC[C@]2(C)[C@@H](C3=CC(=O)OC3)CC[C@]12O` [DIGITOXIGENIN], for which the Dose is 0.38 µM in the assay filed under Cavia porcellus [1], 0.64 µM in the assay filed under Cavia porcellus [2] and 2.5 µM in the assay listed under Cavia porcellus [4].

(Values after ChEMBL document CHEMBL1123520, “Digitoxigenin 3-O-beta-D-furanosides” (1986).)
